Results reported in US4616086A, “Piperazine-substituted aryl and aralkyl carboxylic acids useful for treating infirmaties caused by excess lipids or thrombocyte” (Boehringer Mannheim GmbH, priority 1981, dated 1986).
Read-outs that look alike come from different tables or passages of the source.

Assays:
[1] = system: cholesterol and triglyceride levels in the serum; assay: Lowering of Lipid Levels (cholesterol and triglyceride levels in the serum of male rats of normal metabolism, 7 days); type: in vivo; conditions: 100 mg/kg/d for 7 days in methyl cellulose suspension, serum 3 hours after last dose, in comparison to control; for inhibition in vivo at 100 mg/kg/day: Rattus norvegicus, po
Protocol: In each case, 10 male rats of normal metabolism were administered the test substance for 7 days in a dosage of 100 mg/kg/d in methyl cellulose suspension. At the end of the experiment, 3 hours after the last does was administered, the cholesterol and triglyceride levels in the serum were determined. The changes are given in Table I expressed as a percentage in comparison to control for a representative selection of compounds.

thrombocyte aggregation = assay: Inhibition of Aggregation (Born test, adrenalin-induced thrombocyte aggregation, platelet-rich plasma); type: cell-based, human; conditions: for % of inhibition of thrombocyte aggregation: human PRP, adrenalin 5×10^-6 mol/l, 2nd phase, test concentration 14^-4 mol/l [sic]
Protocol: Venous blood from subjects of normal metabolism is mixed with sodium citrate (9:1). The erythrocytes are settled by centrifugation at 150 g. The thrombocytes are concentrated in the supernatant. This supernatant is referred to as platelet-rich plasma (PRP). An aliquot of the PRP is placed in the cell of an aggregometer (Universal Aggregometer mfd. by Braun Melsungen) and there stirred by means of a small magnet. The substance to be tested is added in an aqueous solution (pH approx. 7). Changes in the light transmission in the suspension are continuously registered by a recorder. After spontaneous aggregation ends, aggregation is triggered by the addition of adrenalin (end concentration 5×10^-6 mol/l). Larger clumps of thrombocytes form and this causes the transmission of light through the suspension to increase.
The adrenalin-induced aggregation takes place in two phases, i.e., the light transmission first increases, then briefly remains steady, and then again increases. Only the second phase of the aggregation can be influenced by aggregation inhibitors.
With the same PRP, aggregation is induced with adrenalin after addition of the test substance and the course of the aggregation is registered with the recorder. The angle of the 2nd phase from the horizontal is again determined and the ratio of the two angles gives the percentage of inhibition of the 2nd phase of the thrombocyte aggregation.
All substances were tested in a concentration of 14^-4 mol/l in determining their aggregation inhibiting action.

[2] = read-out: % of reduction of cholesterol
[3] = read-out: % of reduction of triglycerides
[4] = Homo sapiens, read-out: inhibition of the 2nd phase of thrombocyte aggregation (standard)

| Structure (SMILES) | inhibition in vivo at 100 mg/kg/day [1, 2] | inhibition in vivo at 100 mg/kg/day [1, 3] | other results |
| --- | --- | --- | --- |
| COc1ccc(OC(C)CN2CCN(CCc3ccc(C(=O)O)cc3)CC2)cc1 (centres unmarked) [33 f] |  |  | % of reduction of cholesterol [1]: 37%; % of reduction of triglycerides [1]: 42% |
| O=C(O)Cc1ccc(N2CCN(S(=O)(=O)c3ccccc3)CC2)cc1 [50 o] | 26% | 14% |  |
| O=C(O)c1ccc(N2CCN(CCCc3ccccc3)CC2)cc1 [13 i] | 38% | 15% |  |
| CCCCCCCCCCCCCCCCN1CCN(c2ccc(CCC(=O)O)cc2)CC1 [Example 58, 3-[4-(1-n-Hexadecylpiperazin-4-yl)-phenyl]-propionic acid] | 17% | 6% |  |
| O=C(O)c1ccc(CCN2CCN(C(=O)c3ccc(Cl)cc3)CC2)cc1 [33 i] |  |  | % of reduction of cholesterol [1]: 41%; % of reduction of triglycerides [1]: 24% |
| CC(CN1CCN(CCc2ccc(C(=O)O)cc2)CC1)Oc1ccccc1 (centres unmarked) [33 d] |  |  | % of reduction of cholesterol [1]: 43%; % of reduction of triglycerides [1]: 41%; % of inhibition of thrombocyte aggregation (thrombocyte aggregation): 6% |
| O=C(O)c1ccc(CCN2CCN(CCOc3ccccc3)CC2)cc1 [33 c] | 13% | 11% | % of inhibition of thrombocyte aggregation (thrombocyte aggregation): 40% |
| CC(Cc1ccc(Cl)cc1)CN1CCN(CCc2ccc(C(=O)O)cc2)CC1 (centres unmarked) [33 u] | 28% | 32% |  |
| O=C(O)c1ccc(CCN2CCN(S(=O)(=O)c3ccc(Cl)cc3)CC2)cc1 [33 o] | 35% | 13% |  |
| CC(=O)Oc1ccccc1C(=O)O [acetylsalicylic acid, reference compound] |  |  | inhibition at 50 µM (thrombocyte aggregation; [4]): 0%; inhibition at 100 µM (thrombocyte aggregation; [4]): 100% |
| CC(CN1CCN(CCc2ccc(C(=O)O)cc2)CC1)Oc1ccc([N+](=O)[O-])cc1 (centres unmarked) [34 s] | 47% | 21% |  |
| O=C(O)c1ccc(CCN2CCN(CC=Cc3ccc(Cl)cc3)CC2)cc1 [34 c] | 30% | 40% | % of inhibition of thrombocyte aggregation (thrombocyte aggregation): 7% |
| CS(=O)(=O)N1CCN(CCc2ccc(C(=O)O)cc2)CC1 [33 m] | 20% | 30% |  |
| CCCCOC(=O)CCc1ccc(N2CCN(C(=O)C=Cc3ccc(Cl)cc3)CC2)cc1 [Example 55, n-Butyl 3-{4-[1-(4-chlorocinnamoyl)-piperazin-4-yl]-phenyl}-propionate] |  |  | light sensitivity: light-sensitive |
| O=C(O)c1ccc(CCN2CCN(Cc3ccccc3Cl)CC2)cc1 [34 i] |  |  | % of reduction of cholesterol [1]: 21%; % of reduction of triglycerides [1]: 10%; % of inhibition of thrombocyte aggregation (thrombocyte aggregation): 100% |
| O=C(O)c1ccc(CCN2CCN(CC=Cc3ccc([N+](=O)[O-])cc3)CC2)cc1 [Example 34o, 4-{2-[1-(4-nitrocinnamyl)-piperazin-4-yl]-ethyl}-benzoic acid] |  |  | light sensitivity: Light sensitive |
| CC(C)(C)c1cc(CCN2CCN(c3ccc(CC(=O)O)cc3)CC2)cc(C(C)(C)C)c1O [50 j] | 40% | 0% |  |
| O=C(O)Cc1ccc(CCN2CCN(S(=O)(=O)c3ccc(Cl)cc3)CC2)cc1 [49 e] | 41% | 8% |  |
| CCOC(=O)c1ccc(CCCN2CCN(C(=O)c3ccc(Cl)cc3)CC2)cc1 [55 b] | 33% | 3% |  |
| CC(=Cc1ccc(CCN2CCN(C(=O)c3ccc(Cl)cc3)CC2)cc1)C(=O)O [67 d1] | 37% | 9% |  |
| O=C(O)Cc1ccc(CCN2CCN(S(=O)(=O)c3ccccc3)CC2)cc1 [50 g] | 28% | 9% |  |
| CC(CN1CCN(c2ccc(C=CC(=O)O)cc2)CC1)Oc1ccccc1 (centres unmarked) [65 d1] | 5% | 20% |  |
| O=C(O)c1ccc(CCN2CCN(c3ccc(Oc4ccccc4)cc3)CC2)cc1 [33 r] | 33% | 15% |  |
| CCOC(=O)c1ccc(N2CCNCC2)cc1 [Example 1, Ethyl 4-(piperazin-1-yl)-benzoate] |  |  | hygroscopicity (hydrochloride): hydroscopic |
| CC(C)(C)c1cc(C=CC(=O)N2CCN(CCc3ccc(CC(=O)O)cc3)CC2)cc(C(C)(C)C)c1O [50 f] | 40% | 16% |  |
| O=C(O)c1ccc(CCN2CCN(Cc3ccc(Cl)cc3)CC2)cc1 [33 b] | 40% | 30% | % of inhibition of thrombocyte aggregation (thrombocyte aggregation): 19% |
| CC(C)(C)c1cc(CCC(=O)N2CCN(CCc3ccc(C(=O)O)cc3)CC2)cc(C(C)(C)C)c1O [33 l] |  |  | % of reduction of cholesterol [1]: 38%; % of reduction of triglycerides [1]: 22% |
